Square brackets hold non-standard residues; d marks the D form. Peptide text beside a SMILES is read from it. * marks the point of attachment. pNA = O=[N+]([O-])c1ccc(N*)cc1; dNle = CCCC[C@@H](N)C(=O)O; Moc = COC(=O)*
Experiments:
Type in all cases: biochemical
Set-up in all cases: coding for the FIX protease domain from amino acid position 181 to 415; Met (ATG start codon) (N); made in house
rFIXa (human) [1] = molecular target: T1, rFIXa (human) (Homo sapiens, UniProt P00740); experiment: Influence of alcohols and organic solvents on the activity of rFIXa, chromogenic peptide substrates; settings: for V/V0: MeSO2-D-HHT-Gly-Arg-pNA 1.02 mmol/l, 0.48 μmol/l rFIXa; for V/V0 / effect on the activity of rFIXa (in words): pH 7.4; for effect on the activity of rFIXa (in words): additive 0-50%, MeSO2-D-HHT-Gly-Arg-pNA
Protocol: The reaction was started by adding FIXa.
MeSO2 -D-HHT-Gly-Arg-pNA→MeSO2 -D-HHT-Gly-Arg+pNA measurement signal: pNA
(§1) 0.48 μmol/l rFIXa (human)
0-50% (alcohol or organic solvent)
The ratio V/V0 was calculated to illustrate the stimulation of the catalytic activity of rFIXa.
V0, reaction rate without additives
V, reaction rate in the presence of additives
Test Mixture Chromogenic (Concentration in the Test)
Target sequence in this assay (P00740 227-461 limits assumed): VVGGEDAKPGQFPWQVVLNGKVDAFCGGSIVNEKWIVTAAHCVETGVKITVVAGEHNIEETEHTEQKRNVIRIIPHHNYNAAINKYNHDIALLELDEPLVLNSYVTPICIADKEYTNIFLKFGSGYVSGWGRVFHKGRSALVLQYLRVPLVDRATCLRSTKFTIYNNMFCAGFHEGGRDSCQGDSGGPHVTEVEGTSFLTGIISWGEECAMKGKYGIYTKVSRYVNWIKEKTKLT
Target sequence in this assay (P00740 131-226 partner limits assumed): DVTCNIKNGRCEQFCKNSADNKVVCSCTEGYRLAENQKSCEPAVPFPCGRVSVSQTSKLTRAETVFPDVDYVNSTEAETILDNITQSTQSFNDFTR

rFIXa (human) [2] = molecular target: T1, rFIXa (human); experiment: Kinetics of cleavage of chromogenic peptide substrates by rFIXa with ethylene glycol (Lineweaver Burk); settings: substrate MOC-D-Nle-Gly-Arg-pNA, rFIXa 0.48 μmol/l, pH 7.4
Protocol: MeSO2 -D-HHT-Gly-Arg-pNA (0.102-1.02 mmol/l)
as §1
Target sequence in this assay (P00740 227-461): as the sequence (P00740 227-461 limits assumed) above
Target sequence in this assay (P00740 131-226): as the sequence (P00740 131-226 partner limits assumed) above
MOC-D-Nle-Gly-Arg-pNA (0.102-1.02 mmol/l)
MeSO2 -D-CHG-Gly-Arg-pNA (0.102-1.02 mmol/l)
0.28 μmol/l rFIXa (human)
The kinetic constants (Kcat /Km) were determined graphically according to Lineweaver Burk (Km and Kcat cannot be determined separately since the straight lines go through the origin).

rFIXa (human) [3] = molecular target: T1, rFIXa (human); experiment: Influence of known protease inhibitors on the activity of rFIXa
Protocol: Specific FIXa inhibitors can be identified by the inhibition of FIXa activity. For this purpose the FIXa activity is determined with a substrate of the R-D-Xxx-Gly-Arg-pNA type (Xxx=hydrophobic amino acid) in the absence and presence of the substance to be tested or of a substance mixture and the percentage inhibition is calculated from the quotients. The inhibition constant Ki is determined from the inhibition kinetics. The measurement signal is amplified by the presence of high concentrations of certain alcohols (preferably ethylene glycol).
200 μl buffer (100 mmol/l Tris-HCl, 100 mmol/l NaCl, 5 mmol/l CaCl2, 20-40% alcohol, pH 7-9) the buffer contains the inhibitor at various concentrations […]
The reaction can also be terminated after 5-10 min by stopping with acetic acid (25 μl, 50%), the absorbance is determined at 405 nm against a reagent blank.
Influence of Known Protease Inhibitors on the Activity of rFIXa Using Different pHs, Alcohols and Alcohol Concentrations 42 mmol/l Tris-HCl, pH 7.4 or 8.5 substrate MeSO2 -D-CHG-Gly-Arg-pNA (1.02 mmol/l) […]
inhibitor at stepped concentrations (4.1-163 μmol/l)
Known synthetic inhibitors of the 3-amidinophenylalanine type were used as inhibitors (Sturzebecher et al, J. Enzyme. Inhibition 9 (1995) 87 and WO 92/08709) (1991)). The inhibitory effect was examined at a low and at a high alcohol concentration as an example.
Target sequence in this assay (P00740 227-461 limits assumed): as the sequence (P00740 227-461 limits assumed) above
Target sequence in this assay (P00740 131-226 limits assumed): as the sequence (P00740 131-226 partner limits assumed) above

CC#N [Acetonitrile]
V/V0 (rFIXa (human) [1]; 8% additive): 0.828 | V/V0 (rFIXa (human) [1]; 16% additive): 0.314 | V/V0 (rFIXa (human) [1]; 25% additive): 0 | V/V0 (rFIXa (human) [1]; 33% additive): 0 | V/V0 (rFIXa (human) [1]; 41% additive): 0 | V/V0 (rFIXa (human) [1]; 50% additive): 0 | effect on the activity of rFIXa (in words) (rFIXa (human) [1]): inactivate the enzyme

CN(C)C=O [DMF, dimethylformamide]
V/V0 (rFIXa (human) [1]; 8% additive): 0.649 | V/V0 (rFIXa (human) [1]; 16% additive): 0.514 | V/V0 (rFIXa (human) [1]; 25% additive): 0 | V/V0 (rFIXa (human) [1]; 33% additive): 0 | V/V0 (rFIXa (human) [1]; 41% additive): 0 | V/V0 (rFIXa (human) [1]; 50% additive): 0 | effect on the activity of rFIXa (in words) (rFIXa (human) [1]): inactivate the enzyme

C[S+](C)[O-] [DMSO, dimethylsulfoxide]
V/V0 (rFIXa (human) [1]; 8% additive): 1.27 | V/V0 (rFIXa (human) [1]; 16% additive): 1.45 | V/V0 (rFIXa (human) [1]; 25% additive): 1.59 | V/V0 (rFIXa (human) [1]; 33% additive): 1.43 | V/V0 (rFIXa (human) [1]; 41% additive): 0.922 | V/V0 (rFIXa (human) [1]; 50% additive): 0.157 | effect on the activity of rFIXa (in words) (rFIXa (human) [1]): does not inhibit rFIXa up to 30%

OCC(O)CO [Glycerol]
V/V0 (rFIXa (human) [1]; 8% additive): 1.12 | V/V0 (rFIXa (human) [1]; 16% additive): 1.64 | V/V0 (rFIXa (human) [1]; 25% additive): 2.47 | V/V0 (rFIXa (human) [1]; 33% additive): 3.38 | V/V0 (rFIXa (human) [1]; 41% additive): 4.82 | V/V0 (rFIXa (human) [1]; 50% additive): 5.91 | effect on the activity of rFIXa (in words) (rFIXa (human) [1]): does not stimulate until higher concentrations (25-50%)

CCCC[C@@H](NC(=O)OC)C(=O)NCC(=O)N[C@@H](CCCNC(=N)N)C(=O)Nc1ccc([N+](=O)[O-])cc1 [MOC--D--Nle--Gly--Arg--pNA, MOC-D-Nle-Gly-Arg-pNA] (Moc-[dNle]-Gly-Arg-pNA)
kkat /Km (rFIXa (human) [2]; 16% ethylene glycol): 326 M⁻¹ s⁻¹ | kkat /Km (rFIXa (human) [2]; 25% ethylene glycol): 565 M⁻¹ s⁻¹ | kkat /Km (rFIXa (human) [2]; 33% ethylene glycol): 552 M⁻¹ s⁻¹ | kkat /Km (rFIXa (human) [2]; 41% ethylene glycol): 360 M⁻¹ s⁻¹ | kkat /Km (rFIXa (human) [2]; 50% ethylene glycol): 148 M⁻¹ s⁻¹

CO [Methanol]
V/V0 (rFIXa (human) [1]; 8% additive): 2.16 | V/V0 (rFIXa (human) [1]; 16% additive): 3.46 | V/V0 (rFIXa (human) [1]; 25% additive): 3.71 | V/V0 (rFIXa (human) [1]; 33% additive): 2.83 | V/V0 (rFIXa (human) [1]; 41% additive): 1.55 | V/V0 (rFIXa (human) [1]; 50% additive): 0.588 | stimulation of the activity of rFIXa (rFIXa (human) [1]; concentration range of 15-40%): 5-15 fold

CC(C)O [i-Propanol]
V/V0 (rFIXa (human) [1]; 8% additive): 2.17 | V/V0 (rFIXa (human) [1]; 16% additive): 2.48 | V/V0 (rFIXa (human) [1]; 25% additive): 1.18 | V/V0 (rFIXa (human) [1]; 33% additive): 0.346 | V/V0 (rFIXa (human) [1]; 41% additive): 0.164 | V/V0 (rFIXa (human) [1]; 50% additive): 0.164

OC[C@@H](O)[C@@H](O)CO [m-Erythritol]
V/V0 (rFIXa (human) [1]; 8 g/100 ml additive): 1.16 | V/V0 (rFIXa (human) [1]; 16 g/100 ml additive): 1.35 | V/V0 (rFIXa (human) [1]; 25 g/100 ml additive): 1.49 | V/V0 (rFIXa (human) [1]; 33 g/100 ml additive): 1.56 | V/V0 (rFIXa (human) [1]; 41 g/100 ml additive): 1.64 | V/V0 (rFIXa (human) [1]; 50 g/100 ml additive): 1.77 | effect on the activity of rFIXa (in words) (rFIXa (human) [1]): only has a slight effect

CCCO [n-Propanol]
V/V0 (rFIXa (human) [1]; 8% additive): 3.43 | V/V0 (rFIXa (human) [1]; 16% additive): 2.26 | V/V0 (rFIXa (human) [1]; 25% additive): 0.339 | V/V0 (rFIXa (human) [1]; 33% additive): 0.186 | V/V0 (rFIXa (human) [1]; 41% additive): 0.056 | V/V0 (rFIXa (human) [1]; 50% additive): 0.056

CC(C)(C)O [t-Butanol]
V/V0 (rFIXa (human) [1]; 8% additive): 2.05 | V/V0 (rFIXa (human) [1]; 16% additive): 1.67 | V/V0 (rFIXa (human) [1]; 25% additive): 0.702 | V/V0 (rFIXa (human) [1]; 33% additive): 0.368 | V/V0 (rFIXa (human) [1]; 41% additive): 0.263 | V/V0 (rFIXa (human) [1]; 50% additive): 0.263

N=C(N)c1cccc(CC(NS(=O)(=O)c2ccc3ccccc3c2)C(=O)N2Cc3ccccc3CC2C(=O)O)c1 (centres unmarked) [βNAPS-(3-Am)Phe-TIC-OH, Nα-(2-naphthylsulfonyl)-3-amidino-(D,L)-phenylalanine-1,2,3,4-tetrahydroisoquinoline-3-carboxylic acid]
Inhibition of the activity of factor IXa (in %) (rFIXa (human) [3]; inhibitor 4.1 μmol/l, pH 7.4, 4.1% ethanol, 0.57 μmol/l rFIXa): 97.2% | Inhibition of the activity of factor IXa (in %) (rFIXa (human) [3]; inhibitor 4.1 μmol/l, pH 7.4, 33% ethylene glycol, 0.057 μmol/l rFIXa): 100% | Inhibition of the activity of factor IXa (in %) (rFIXa (human) [3]; inhibitor 4.1 μmol/l, pH 8.5, 4.1% ethanol, […] rFIXa): 100% | Inhibition of the activity of factor IXa (in %) (rFIXa (human) [3]; inhibitor 4.1 μmol/l, pH 8.5, 33% ethylene glycol, […] rFIXa): 100% | Inhibition of the activity of factor IXa (in %) (rFIXa (human) [3]; inhibitor 8.2 μmol/l, pH 7.4, 4.1% ethanol, 0.57 μmol/l rFIXa): 97.2% | Inhibition of the activity of factor IXa (in %) (rFIXa (human) [3]; inhibitor 8.2 μmol/l, pH 7.4, 33% ethylene glycol, 0.057 μmol/l rFIXa): 100% | Inhibition of the activity of factor IXa (in %) (rFIXa (human) [3]; inhibitor 8.2 μmol/l, pH 8.5, 4.1% ethanol, […] rFIXa): 96.2% | Inhibition of the activity of factor IXa (in %) (rFIXa (human) [3]; inhibitor 8.2 μmol/l, pH 8.5, 33% ethylene glycol, […] rFIXa): 97.9% | Inhibition of the activity of factor IXa (in %) (rFIXa (human) [3]; inhibitor 16.3 μmol/l, pH 7.4, 4.1% ethanol, 0.57 μmol/l rFIXa): 88.2% | Inhibition of the activity of factor IXa (in %) (rFIXa (human) [3]; inhibitor 16.3 μmol/l, pH 7.4, 33% ethylene glycol, 0.057 μmol/l rFIXa): 85.4% | Inhibition of the activity of factor IXa (in %) (rFIXa (human) [3]; inhibitor 16.3 μmol/l, pH 8.5, 4.1% ethanol, […] rFIXa): 86.2% | Inhibition of the activity of factor IXa (in %) (rFIXa (human) [3]; inhibitor 16.3 μmol/l, pH 8.5, 33% ethylene glycol, […] rFIXa): 88.4% | Inhibition of the activity of factor IXa (in %) (rFIXa (human) [3]; inhibitor 40.8 μmol/l, pH 7.4, 4.1% ethanol, 0.57 μmol/l rFIXa): 75.4% | Inhibition of the activity of factor IXa (in %) (rFIXa (human) [3]; inhibitor 40.8 μmol/l, pH 7.4, 33% ethylene glycol, 0.057 μmol/l rFIXa): 62.6% | Inhibition of the activity of factor IXa (in %) (rFIXa (human) [3]; inhibitor 40.8 μmol/l, pH 8.5, 4.1% ethanol, […] rFIXa): 77.5% | Inhibition of the activity of factor IXa (in %) (rFIXa (human) [3]; inhibitor 40.8 μmol/l, pH 8.5, 33% ethylene glycol, […] rFIXa): 78.4% | Inhibition of the activity of factor IXa (in %) (rFIXa (human) [3]; inhibitor 81.6 μmol/l, pH 7.4, 4.1% ethanol, 0.57 μmol/l rFIXa): 57.0% | Inhibition of the activity of factor IXa (in %) (rFIXa (human) [3]; inhibitor 81.6 μmol/l, pH 7.4, 33% ethylene glycol, 0.057 μmol/l rFIXa): 41.0% | Inhibition of the activity of factor IXa (in %) (rFIXa (human) [3]; inhibitor 81.6 μmol/l, pH 8.5, 4.1% ethanol, […] rFIXa): 63.8% | Inhibition of the activity of factor IXa (in %) (rFIXa (human) [3]; inhibitor 81.6 μmol/l, pH 8.5, 33% ethylene glycol, […] rFIXa): 66.0% | Inhibition of the activity of factor IXa (in %) (rFIXa (human) [3]; inhibitor 163 μmol/l, pH 7.4, 4.1% ethanol, 0.57 μmol/l rFIXa): 25.7% | Inhibition of the activity of factor IXa (in %) (rFIXa (human) [3]; inhibitor 163 μmol/l, pH 7.4, 33% ethylene glycol, 0.057 μmol/l rFIXa): 28.9% | Inhibition of the activity of factor IXa (in %) (rFIXa (human) [3]; inhibitor 163 μmol/l, pH 8.5, 4.1% ethanol, […] rFIXa): 48.8% | Inhibition of the activity of factor IXa (in %) (rFIXa (human) [3]; inhibitor 163 μmol/l, pH 8.5, 33% ethylene glycol, […] rFIXa): 45.4%
